Assay [1] relates to SARS-CoV-2 variant D614G. The assay is classed as cell-based.
Assay [2] concerns SARS-CoV-2 variants. Description: microbe, parasite or virus in culture. The assay is classed as cell-based.

On to `O=C(c1ccc(OCCN2CCCCC2)cc1)c1c(-c2ccc(O)cc2)sc2cc(O)ccc12` [Raloxifene, 1-[6-hydroxy-2-(4-hydroxyphenyl)benzo[b]thien-3-yl]-1-[4-[2-(1-piperidinyl)ethoxy]phenyl]methanone], for which the IC50 in assay [1] is 7.48 µM; in assay [2] (Severe acute respiratory syndrome coronavirus 2, Vero C1008, read-out: IC50 calculated on recovering of cell viability), 4.5 to 7.99 µM. In addition, in assay [2] (all the tested viral variants), the “recovery of viability in infected Vero E6 cells” value is “able to recover viability”.

One may read the IC50 as the concentration that gives 50% inhibition.

The values above are taken from patent publication US20240342150A1 (priority 2021, published 2024).
